This is an account of results in patent US20210369853A1, “TARGETED PROTEASE DEGRADATION PLATFORM” (EUBULUS BIOTHERAPEUTICS INC., priority 2018, published 2021).

Broadly, the DC50 is the concentration giving 50% degradation. One may read the EC50 as the concentration needed to bring the measured effect to its halfway point. A high value points to a need for much substance.

What all share (type): cell-based
In one test the target is T1, PLK1 (Homo sapiens, UniProt P53350).
T1 construct: endogenous in cells
As to the kind of experiment: Western blot, protein degradation (DC50). A digest of the protocol: (§1)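 Cells treated with compound, lysed in RIPA and resolved by SDS-PAGE (4%-12%); PVDF blots probed with primary antibody overnight at 4° C, then secondary antibody, and developed with ECL. Band intensities quantified by densitometry to give degradation.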
(A western blot detects proteins with antibodies after separation by electrophoresis.)

Another test concerns the target T2, BRD4 (Homo sapiens, UniProt O60885).
T2 construct: endogenous in cells
As to the kind of experiment: Western blot, protein degradation (DC50). In short, it runs like this:
as §1

Test [1] relates to Human Small Cell Lung Cancer NCI-H82. As to the kind of experiment: Cell proliferation experiment (Alarm blue, 72 h, EC50). The settings on record: Homo sapiens, NCI-H82; NCIH82 cells. A digest of the protocol: (§2)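 Single-cell suspensions from log-phase cultures are plated, compound in complete medium is added at 5-fold dilution steps (two replicates each), and cells grow for 72 h. Viability is then measured as Alamar blue fluorescence, giving EC50 by sigmoidal fitting.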

For test [2], the system named is Human Colon Cancer HCT-116. The test is described as above. Conditions: Homo sapiens, HCT-116; HCT116 cells. In short, it runs like this:
as §2

Test [3] relates to Human Monocytic Leukemia MV4-11. The description is as above. In short, it runs like this:
as §2

Test [4] concerns Human Acute Myelomonocytic Leukemia HL-60. The description is as above. Conditions: HL-60 cells. In short, it runs like this: as §2
For a further test, the system named is Human Colon Cancer HT-29. The description is as above. Conditions: Homo sapiens; HT-29 cells. In short, it runs like this: as §2
The subject of test [5] is Human cervical adenocarcinoma cells Hela. Described as above. In short, it runs like this: as §2
Where [6] appears, read: Homo sapiens, MV4-11, MV4;11 cells.

Read-outs that look alike come from different tables or passages of the source.

T1 sequence (P53350 whole entry): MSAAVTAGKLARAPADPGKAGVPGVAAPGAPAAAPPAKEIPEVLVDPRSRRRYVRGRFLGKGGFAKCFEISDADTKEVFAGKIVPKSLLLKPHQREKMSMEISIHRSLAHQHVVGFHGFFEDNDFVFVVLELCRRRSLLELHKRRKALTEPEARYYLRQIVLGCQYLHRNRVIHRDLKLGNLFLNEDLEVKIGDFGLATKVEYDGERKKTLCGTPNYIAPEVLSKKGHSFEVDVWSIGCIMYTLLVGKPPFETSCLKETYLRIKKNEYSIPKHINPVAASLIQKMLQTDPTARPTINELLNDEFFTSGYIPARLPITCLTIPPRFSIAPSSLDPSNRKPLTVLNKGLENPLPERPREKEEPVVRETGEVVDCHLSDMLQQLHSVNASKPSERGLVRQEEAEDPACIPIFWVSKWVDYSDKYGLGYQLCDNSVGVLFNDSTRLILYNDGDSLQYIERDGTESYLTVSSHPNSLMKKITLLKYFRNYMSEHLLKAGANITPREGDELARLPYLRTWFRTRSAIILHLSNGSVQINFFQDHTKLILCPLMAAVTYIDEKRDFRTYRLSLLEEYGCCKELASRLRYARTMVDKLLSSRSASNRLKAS

`CC[C@@H]1C(=O)N(C)c2cnc(Nc3ccc(C(=O)NCCOCCNCCCC(=O)Nc4cccc5c4CN(C4CCC(=O)NC4=O)C5=O)cc3OC)nc2N1Cc1ccc(Br)cc1` (stereo partly shown) [UB-180625]: the DC50 at PLK1 (24 h, read-out: PLK1 DC50 (24 h)) was less than 10 nM; on BRD4 (24 h, read-out: BRD4 DC50 (24 h)), less than 10 nM. In addition, the values for the 50% effective concentration (EC50) in test [1], in test [2] and in test [3] (setting [6]) were greater than 1000 nM, greater than 1000 nM and 10 to 100 nM, respectively.
For `CC[C@@H]1C(=O)N(C)c2cnc(Nc3ccc(C(=O)NCCOCCNCCCCCC(=O)Nc4cccc5c4CN(C4CCC(=O)NC4=O)C5=O)cc3OC)nc2N1Cc1ccc(Br)cc1` (stereo partly shown) [UB-180643], the 50% effective concentration (EC50) is greater than 1000 nM in test [1], 100 to 1000 nM in test [2] and 10 to 100 nM in test [3] (setting [6]).
Consider `O=C1CCC(N2Cc3c(NC(=O)CNCCOCCOCCOCCOCCNC(=O)c4ccc(Nc5ncc6c(n5)-c5ccc(Cl)cc5C(c5c(F)cccc5F)=NC6)cc4)cccc3C2=O)C(=O)N1` (stereo not shown) [UB-180801], for which the EC50 was greater than 1000 nM in test [4] and 100 to 1000 nM in test [3] (setting [6]).
In the case of `CC[C@@H]1C(=O)N(C)c2cnc(Nc3ccc(C(=O)NCc4cn(CCNCCOCC(=O)Nc5cccc6c5CN(C5CCC(=O)NC5=O)C6=O)nn4)cc3OC)nc2N1C1CCCC1` (stereo partly shown) [UB-180719], the DC50 on PLK1 (6 h, read-out: PLK1 DC50 (nM) (6 h)) was 10 to 100 nM; on PLK1 (24 h, read-out: PLK1 DC50 (nM) (24 h)), less than 10 nM; at BRD4 (6 h, read-out: BRD4 DC50 (nM) (6 h)), less than 10 nM; on BRD4 (24 h, read-out: BRD4 DC50 (nM) (24 h)), less than 10 nM. Moreover, the concentration giving a half-maximal response (EC50) is 100 to 1000 nM in the test with Human Colon Cancer HT-29 and 10 to 100 nM in test [3] (setting [6]).
For `CC[C@@H]1c2c(C#N)ncn2-c2cnc(Nc3ccc(C(=O)NCCOCCOCCC(=O)Nc4cccc5c4CN(C4CCC(=O)NC4=O)C5=O)cc3OC)nc2N1C1CCCC1` (stereo partly shown) [UB-180538], the EC50 in test [5] (Homo sapiens) and in test [3] (setting [6]) was greater than 1000 nM in each case.
Consider `O=C1CCC(N2Cc3c(NC(=O)CNCCOCCOCCOCCNC(=O)c4ccc(Nc5ncc6c(n5)-c5ccc(Cl)cc5C(c5c(F)cccc5F)=NC6)cc4)cccc3C2=O)C(=O)N1` (stereo not shown) [UB-180727], for which the values for the EC50 in test [4] and in test [3] (setting [6]) were greater than 1000 nM and 100 to 1000 nM, respectively.
As for `CC[C@@H]1c2nncn2-c2cnc(Nc3ccc(C(=O)NCCOCCOCCOCCOCC(=O)Nc4cccc5c4CN(C4CCC(=O)NC4=O)C5=O)cc3OC)nc2N1C1CCCC1` (stereo partly shown) [UB-180561], the EC50 in test [5] and in test [3] (MV4;11 cells) was greater than 1000 nM each time.
As to `CC[C@@H]1c2nncn2-c2cnc(Nc3ccc(C(=O)NCCOCCOCCC(=O)N[C@H](C(=O)N4C[C@H](O)C[C@H]4C(=O)NCc4ccc(-c5scnc5C)cc4)C(C)(C)C)cc3OC)nc2N1C1CCCC1` [UB-180550], the EC50 in test [5] (Homo sapiens) and in test [3] (setting [6]) was greater than 1000 nM throughout.
As for `CC[C@@H]1C(=O)N(C)c2cnc(Nc3ccc(C(=O)NCCCNCCCC(=O)Nc4cccc5c4CN(C4CCC(=O)NC4=O)C5=O)cc3OC)nc2N1Cc1ccc(Br)cc1` (stereo partly shown) [UB-180637], the 50% effective concentration (EC50) in test [1] was greater than 1000 nM; in test [2], greater than 1000 nM; in test [3] (setting [6]), 10 to 100 nM.
For the compound `O=C1CCC(N2Cc3c(NC(=O)CNCCOCCOCCOCCOCCNC(=O)[C@]4(Cc5cccc(Nc6nccs6)n5)CC[C@@H](Oc5cccc(Cl)c5F)CC4)cccc3C2=O)C(=O)N1` (stereo partly shown) [UB-180802], at PLK1 (6 h, read-out: PLK1 DC50 (6 h)), the DC50 is less than 10 nM. Besides, the EC50 is greater than 1000 nM in test [4], 100 to 1000 nM in test [2] and 100 to 1000 nM in test [3] (setting [6]).
With `CC[C@@H]1c2nncn2-c2cnc(Nc3ccc(C(=O)NCCCCOCC(=O)Nc4cccc5c4CN(C4CCC(=O)NC4=O)C5=O)cc3OC)nc2N1C1CCCC1` (stereo partly shown) [UB-180524], the EC50 was greater than 1000 nM in test [5] (Homo sapiens) and 10 to 100 nM in test [3] (setting [6]).
On to `CC[C@@H]1c2c(C#N)ncn2-c2cnc(Nc3ccc(C(=O)NCCOCC(=O)Nc4cccc5c4CN(C4CCC(=O)NC4=O)C5=O)cc3OC)nc2N1C1CCCC1` (stereo partly shown) [UB-180518], for which the EC50 in test [5] (Homo sapiens) and in test [3] (setting [6]) was greater than 1000 nM each time.
For `CC[C@@H]1C(=O)N(C)c2cnc(Nc3ccc(C(=O)NCCOCCNCCCCC(=O)Nc4cccc5c4CN(C4CCC(=O)NC4=O)C5=O)cc3OC)nc2N1Cc1ccc(Br)cc1` (stereo partly shown) [UB-180645], the values for the EC50 in test [1], in test [2] and in test [3] (setting [6]) were greater than 1000 nM, 100 to 1000 nM and 10 to 100 nM, respectively.
Take `CC[C@@H]1c2c(C#N)ncn2-c2cnc(Nc3ccc(C(=O)NCCOCCOCCOCCOCC(=O)Nc4cccc5c4CN(C4CCC(=O)NC4=O)C5=O)cc3OC)nc2N1C1CCCC1` (stereo partly shown) [UB-180560]: the EC50 in test [5] (Homo sapiens) is greater than 1000 nM; in test [3] (setting [6]), 100 to 1000 nM.
